Here are results for 12 compounds from patent US10981908B2, “Aryl hydrocarbon receptor (AHR) modulator compounds” (PHENEX PHARMACEUTICALS AG, priority 2017, dated 2021).

The target in this assay is T1, AhR (Homo sapiens, UniProt P35869).
T1 construct: The HepG2 CYP1A1-Luc cells do express basal luciferase activity that can be increased via potent AhR agonists or decreased via potent AhR antagonists; endogenous in cells
T1 sequence (P35869 11-848): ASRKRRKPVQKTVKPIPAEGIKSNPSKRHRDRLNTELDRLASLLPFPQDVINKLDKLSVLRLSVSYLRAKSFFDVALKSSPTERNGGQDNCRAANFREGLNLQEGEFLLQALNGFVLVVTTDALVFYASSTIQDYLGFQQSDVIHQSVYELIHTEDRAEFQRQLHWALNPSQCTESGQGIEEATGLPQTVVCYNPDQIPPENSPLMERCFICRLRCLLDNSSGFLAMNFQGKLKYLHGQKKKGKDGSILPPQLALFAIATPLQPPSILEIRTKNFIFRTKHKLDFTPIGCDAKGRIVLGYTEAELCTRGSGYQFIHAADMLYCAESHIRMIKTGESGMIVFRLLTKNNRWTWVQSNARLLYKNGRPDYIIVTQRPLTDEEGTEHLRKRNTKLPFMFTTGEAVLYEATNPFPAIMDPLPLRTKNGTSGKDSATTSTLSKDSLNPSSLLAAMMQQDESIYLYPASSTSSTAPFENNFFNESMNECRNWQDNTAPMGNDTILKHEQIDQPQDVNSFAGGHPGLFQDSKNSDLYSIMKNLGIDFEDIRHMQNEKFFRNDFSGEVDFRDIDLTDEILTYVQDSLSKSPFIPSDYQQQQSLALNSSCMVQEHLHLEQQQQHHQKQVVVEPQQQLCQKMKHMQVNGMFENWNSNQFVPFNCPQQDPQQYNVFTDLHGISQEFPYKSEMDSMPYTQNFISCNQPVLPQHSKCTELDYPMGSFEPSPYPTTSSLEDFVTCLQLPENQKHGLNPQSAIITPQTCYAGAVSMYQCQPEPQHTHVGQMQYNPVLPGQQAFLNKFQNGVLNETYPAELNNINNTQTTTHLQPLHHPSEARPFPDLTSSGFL
Briefly: AhR direct luciferase reporter assay in HepG2 cells (HepG2 CYP1A1-LUC). The format is cell-based. The note with it: luciferase activity after 18 hours, medium with no exogenous AhR agonist or 10 nM VAF347, read-out: AhR potency (AhR antagonistic potency, IC50 class). The text has this:
AhR Direct Luciferase Reporter Assay in HepG2 Cells
A stable cell line (HepG2 CYP1A1-LUC) was used in which part of the promoter region of the human CYP1A1 gene is stably integrated into the genome of human HepG2 hepatocytes (DSZM #ACC 180) in front of a Photinus pyralis Firefly Luciferase gene. A 1210 bp fragment comprising part of the human CYP1A1 promoter was isolated via SacI and BgIII restriction digestion from Lightswitch Clone S714555 (SwitchGearGenomics) and inserted between the SacI and BgIII sites in pGL4.30 (Promega #E8481) in front of the Firefly Luciferase gene. The resulting vector was linearized with NotI, transfected into HepG2 cells (DSMZ #ACC 180) and stably transfected clones selected with 250 μg/ml Hygromycin B. After repetitive rounds of subcloning and testing for robustly regulated luciferase activity after AhR agonist stimulation, a stable clonal HepG2 CYP1A1-Luc cell line was selected.
The HepG2 CYP1A1-Luc cells do express basal luciferase activity that can be increased via potent AhR agonists or decreased via potent AhR antagonists, added to the growth medium of the cells.
In typical reporter assays performed with this cell line, cells are grown in 96-well plates and AhR modulators are titrated into the growth medium in serial dilutions in RPMI-1640 Medium (Sigma #R7509) supplemented with 8,6% fetal calf serum (Sigma #F7524) and containing either no exogenous AhR agonist or 10 nM of the potent AhR agonist VAF347 (Calbiochem #182690). Cells are further cultivated for 18 hours and luciferase activities are determined from extracts of cells in buffers containing D-Luciferine and ATvP using a LUMIstar Optima microplate Luminometer from BMG Labtech.
In general terms: A reporter such as luciferase makes a cellular process visible.
As to `Cn1ncnc1C(=O)Nc1ccc2cc(-c3cc(F)ccc3C(F)(F)F)[nH]c2n1` [Example 1/12, N-(2-(5-Fluoro-2-(trifluoromethyl)phenyl)-1H-pyrrolo[2,3-b]pyridin-6-yl)-1-methyl-1H-1,2,4-triazole-5-carboxamide], the IC50 (in general, the midpoint of a concentration-inhibition curve) was less than 100 nM.

In the case of `Cc1scnc1C(=O)Nc1ccc2cc(-c3ccccc3C(F)F)[nH]c2n1` [5/2], the IC50 is less than 100 nM.

As for `CCn1ncnc1C(=O)Nc1ccc2cc(-c3ccccc3C(F)F)[nH]c2n1` [4/7], the IC50 is less than 100 nM.

`Cn1ncnc1C(=O)Nc1ccc2cc(-c3cc(C#N)ccc3C(F)(F)F)[nH]c2n1` [4/8]: the IC50 is less than 100 nM.

On to `Cn1ncnc1C(=O)Nc1ccc2cc(-c3cccc4ccccc34)[nH]c2n1` [Example 1/13, 1-Methyl-N-(2-(naphthalen-1-yl)-1H-pyrrolo[2,3-b]pyridin-6-yl)-1H-1,2,4-triazole-5-carboxamide], for which the IC50 is less than 100 nM.

Regarding `O=C(Nc1ccc2cc(-c3ccccc3C(F)(F)F)[nH]c2n1)c1ncc2ccccn12` [Example 1/22, N-(2-(2-(trifluoromethyl)phenyl)-1H-pyrrolo[2,3-b]pyridin-6-yl)imidazo[1,5-a]pyridine-3-carboxamide], the IC50 is less than 100 nM.

Turning to `O=C(Nc1ccc2cc(-c3ccccc3C(F)(F)F)[nH]c2n1)c1ccc(F)cc1` [Example 1/9, 4-Fluoro-N-(2-(2-(trifluoromethyl)phenyl)-1H-pyrrolo[2,3-b]pyridin-6-yl)benzamide], the IC50 was less than 100 nM.

As to `Cc1ocnc1C(=O)Nc1ccc2cc(-c3ccccc3C(F)F)[nH]c2n1` [5/1], the IC50 is less than 100 nM.

For `Cn1ncnc1C(=O)Nc1ccc2cc(-c3ccoc3C(F)F)[nH]c2n1` [Example 1/32, N-(2-(2-(Difluoromethyl)furan-3-yl)-1H-pyrrolo[2,3-b]pyridin-6-yl)-1-methyl-1H-1,2,4-triazole-5-carboxamide], the concentration for half-maximal inhibition (IC50) is less than 100 nM.

`Cn1ncnc1C(=O)Nc1ccc2cc(-c3ccccc3C3CC3)[nH]c2n1` [Example 4, N-(2-(2-Cyclopropylphenyl)-1H-pyrrolo[2,3-b]pyridin-6-yl)-1-methyl-1H-1,2,4-triazole-5-carboxamide]: the IC50 was less than 100 nM.

As to `Cc1ccccc1-c1cc2ccc(NC(=O)c3ccnn3C)nc2[nH]1` [Example 1, 1-Methyl-N-(2-(o-tolyl)-1H-pyrrolo[2,3-b]pyridin-6-yl)-1H-pyrazole-5-carboxamide], the 50% inhibitory concentration (IC50) is less than 100 nM.

Take `Cn1ncnc1C(=O)Nc1ccc2cc(-c3cc(F)ccc3C#N)[nH]c2n1` [4/3]: the IC50 was 100 to 1000 nM.
